Broadly, the IC50 is the point on the concentration scale where inhibition reaches its midpoint.

Each structure is given as a SMILES string.

The target in assay [1] is T1, Dihydroorotate dehydrogenase (fumarate) (Saccharomyces cerevisiae (strain ATCC 204508 / S288c), UniProt P28272).
T1 sequence (P28272 whole entry): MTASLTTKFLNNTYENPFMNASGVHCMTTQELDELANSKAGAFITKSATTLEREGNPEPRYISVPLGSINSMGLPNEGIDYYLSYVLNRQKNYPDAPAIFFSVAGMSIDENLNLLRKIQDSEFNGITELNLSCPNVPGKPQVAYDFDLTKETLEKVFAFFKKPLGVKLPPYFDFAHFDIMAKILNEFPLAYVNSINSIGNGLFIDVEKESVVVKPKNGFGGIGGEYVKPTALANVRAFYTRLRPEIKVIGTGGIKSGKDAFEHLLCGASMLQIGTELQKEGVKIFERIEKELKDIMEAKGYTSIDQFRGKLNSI
The experiment in a line: Enzymatic Assays. From the text: (§1) Type 2 DHODH activity was monitored with either the direct assay measuring the formation of orotate or via a chromogen reduction assay using DCIP. Although the extinction coefficient and absorption wavelength are preferable for the chromogen reduction assay, the inorganic electron acceptor DCIP can be utilized by DHODH as the final electron acceptor in lieu of CoQn when the endogenous substrate is at a low concentration. As such, the direct assay was used to measure the binding affinity of pfDHODH to CoQD and L-DHO. The enzymatic reaction was performed by varying the L-DHO concentration (1-400 μM) or CoQD concentration (1-200 μM) while keeping the other substrate constant and in excess.

Assay [2] concerns the target T2, Dihydroorotate dehydrogenase (quinone), mitochondrial [100-517] (Plasmodium berghei (strain Anka), UniProt A0A509AEH5).
T2 construct: 100-517
T2 sequence (A0A509AEH5 whole entry): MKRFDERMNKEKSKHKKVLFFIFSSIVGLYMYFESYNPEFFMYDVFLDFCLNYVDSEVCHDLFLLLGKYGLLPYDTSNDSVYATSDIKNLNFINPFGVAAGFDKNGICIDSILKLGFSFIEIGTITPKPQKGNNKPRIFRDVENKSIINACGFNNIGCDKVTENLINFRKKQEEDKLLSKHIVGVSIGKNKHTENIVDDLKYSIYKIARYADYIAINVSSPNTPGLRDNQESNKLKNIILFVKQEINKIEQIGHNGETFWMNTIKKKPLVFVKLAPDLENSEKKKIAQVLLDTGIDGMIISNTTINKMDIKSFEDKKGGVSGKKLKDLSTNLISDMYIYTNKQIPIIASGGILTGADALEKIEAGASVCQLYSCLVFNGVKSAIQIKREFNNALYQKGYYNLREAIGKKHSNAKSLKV
The experiment in a line: Enzymatic Assays.
Excerpt: as §1

Regarding `Cc1ccccc1/C=C/c1cc(O)c2ccccc2n1` [US8703811, 2], in assay [1], the concentration for half-maximal inhibition (IC50) was over 10 µM.

In assay [2], `Fc1cc(I)ccc1Nc1ccnc2cc(Cl)ccc12` [US8703811, 4] registered an IC50 of over 10 µM.

Source of the values: BindingDB's records for patent US8703811 (Genzyme, 2014).
